Source: ChEMBL document CHEMBL4364294 (J Med Chem, 2019)
Values after ≈ are worked out from the molar mass of the structure shown.

What was measured:
[1] = Aqueous solubility of the compound at pH 1; format: physicochemical
[2] = Aqueous solubility of the compound at pH 6.5; format: physicochemical
[3] = Aqueous solubility of the compound at pH 7.4; format: physicochemical
[4] = Intrinsic clearance in human liver microsomes; format: ADME, Microsome; conditions: read-out: CLH

Structure (SMILES) | solubility [1] [µM] | solubility [2] [µM] | solubility [3] [µM] | predicted hepatic clearance [4] [mL/min/kg]
O=C(N[C@H]1CC[C@H](C(O)CC2c3ccccc3-c3cncn32)CC1)c1ccccc1 (stereo partly specified) | 363 (≈ 146 µg/mL) | 22 (≈ 8.83 µg/mL) | 25 (≈ 10 µg/mL) | 
O=C1CCC(C(O)CC2c3c(F)cccc3-c3cncn32)CC1 (stereo unspecified) |  |  |  | 20.3
OC1CCC(C(O)CC2c3c(F)cccc3-c3cncn32)CC1 (stereo unspecified) | 353 (≈ 112 µg/mL) | 329 (≈ 104 µg/mL) | 316 (≈ 100 µg/mL) | 4.06
OC(CC1c2ccccc2-c2cncn21)C1CCC(F)(F)CC1 (stereo unspecified) |  |  |  | 14.6

More lines, now with the values ahead:

solubility [1] [µM] | solubility [2] [µM] | solubility [3] [µM] | predicted hepatic clearance [4] [mL/min/kg] | Structure (SMILES)
 |  |  | 6.2 | O[C@@H](C[C@H]1c2c(F)cccc2-c2cncn21)[C@H]1CC[C@H](O)CC1
 |  |  | 12.7 | O[C@@H](C[C@H]1c2c(F)cccc2-c2cncn21)[C@H]1CC[C@@H](O)CC1
